These results are taken from patent US7803408B2, “Method of treating endothelial injury” (East Carolina University, priority 1996, dated 2010).

For series [1], the system named is bovine capillary endothelial cells. Conditions: cited from earlier work.
Series [2] relates to Human umbilical vein endothelial cells (HUVECs). In words: Protection/inhibition assay, EPO added two hours after cisplatin (MTS/PMS). Format: cell-based. The procedure: (§1) Cell Culture. Human umbilical vein endothelial cells (HUVECs) were obtained from Caesarian section derived cords. HUVECs were cultured by standard methodology in 25 cm^2 T-flasks (Corning Inc., Corning, N.Y.) coated with 0.5% porcine skin gelatin (Sigma Chemical Co., St. Louis, Mo.). Medium 199 (Life Technologies, Gaithersburg, Md.), supplemented with 20% defined fetal bovine serum (FBS) (Hyclone, Logan, Utah), 16 U/ml heparin (Sigma), 50 μg/ml bovine hypothalamus derived endothelial mitogen (Biomedical Technologies, Stoughton, Mass.), 100 U/ml penicillin and 100 μg/ml streptomycin was used for the growth of HUVECs. Endothelial cells were characterized by homogenous and typical cobblestone morphology, von Willebrand factor antigen positively, and the presence of Weibel-Palade bodies, as are known in the art.
(§2) Protection/Inhibition Assay. The number of metabolically active cells after exposure of endothelial cell cultures to test agents was assessed using a calorimetric method. This assay utilizes solutions of a tetrazolium compound [3-(4,5-dimethylthiazol-2-yl)-5-(3-carboxymethoxyphenyl)-2-(4 Sulfophenyl)-2H-tetrazolium] (MTS) and an electron coupling reagent, phenazine methosulfate (PMS; available from Promega Corp., Madison, Wis.). […] The amount of formazan is measured at 490 nm absorbance and is directly proportional to the numbers of living cells in culture.
(§3) Endothelial cells grown in the complete (supplemented) M199 medium were harvested in the log phase. […] The number and viability of the cells was determined using a hemocytometer and the trypan blue staining, respectively. […] The absorbance of each well at 490 nm was recorded using an ELISA plate reader. The LD50 and the effect of the various treatments on cell viability and chemosensitivity were determined by plotting the corrected absorbance at 490 nm versus the concentration of the additive (EPO, chemotherapeutic agent, or combinations thereof). […]
Endothelial cell cultures were prepared as described in Example 1. […] Endothelial cell viability was assessed using the MTS/PMS colorimetric assay described in Example 1.

The test system is the same in series [3]. Format: cell-based. The method, then: as §1, with “Endothelial cells were characterized by homogenous and typical cobblestone morphology, von Willebrand factor antigen positively, and the presence of Weibel-Palade bodies, as are known in the art.” left out
Protection/Inhibition Assay. The number of metabolically active cells after exposure of endothelial cell cultures to test agents was assessed using a calorimetric method. […] The amount of formazan is measured at 490 nm absorbance and is directly proportional to the numbers of living cells in culture.
Endothelial cells grown in the complete (supplemented) M199 medium were harvested in the log phase. […] The number and viability of the cells was determined using a hemocytometer and the trypan blue staining, respectively. […] The absorbance of each well at 490 nm was recorded using an ELISA plate reader. […]
Endothelial cell cultures were prepared as described in Example 1. […] Endothelial cell viability was assessed using the MTS/PMS calorimetric assay described in Example 1.

Series [4] shares this test system. Format: cell-based. The method, then:
as §1
as §2, with “Wis.). See Denizot and Lang, J. Immunol. Methods 89:271 (1986); Promega Corporation Technical Bulletins 112, 152 and 169).” for “Wis.).”
as §3
The source holds these as a separate data set.

The conditions of series [5]: doses of up to 1,500 Units/kg for three to four weeks; cited from earlier work.
Series [6] relates to human umbilical vein endothelial cells. Conditions: cited from earlier work.

Read-outs that look alike come from different tables or passages of the source.

As for erythropoietin [EPO], the “mitogenic and chemoattractant (migratory) effect” value is “exerts a mitogenic and chemoattractant (migratory) effect” in series [1]; “exerts a mitogenic and chemoattractant (migratory) effect” in series [6]. The “effect on endothelial cell cultures vs cisplatin alone” value in series [2] (0.15 to 5 U/ml EPO two hours following 1 μg/ml cisplatin) and in series [4] (0.15 to 1.25 U/ml EPO simultaneously with 1 μg/ml cisplatin) was “protected from the damaging effects of cisplatin” in each case. In addition, in series [2] (1.25 U/ml EPO two hours after 1 μg/ml cisplatin), the “number of viable cells greater than that of controls” value turned out to be 34%. In addition, the “cell viability vs controls (cisplatin only)” value in series [2] (10 to 20 U/ml EPO two hours after 1 μg/ml cisplatin) is listed as “reduced over that seen in controls”. The “reduction of cell growth compared to controls” value in series [3] (2.5 U/ml EPO two hours prior to cisplatin) is recorded as 48%; in series [3] (5 U/ml EPO two hours prior to cisplatin), 58%. In series [4] (0.3 U/ml EPO simultaneously with 1 μg/ml cisplatin), the “number of viable cells greater than in control cultures treated with cisplatin only” value is on record as “approximately 30%”. For the same substance, the “endothelial cell growth vs cisplatin alone” value in series [4] (5 to 20 U/ml EPO simultaneously with 1 μg/ml cisplatin) was “inhibited”. In addition, the “toxic effects due to EPO itself” value in series [5] is recorded as “without toxic effects”.
